Assay results reported in patent publication US20040150788A1, “Antimicrobial lenses, processes to prepare them and methods of their use” (priority 2002, published 2004).

Experiments:
[1] = cited from earlier work; for Ksp: silver salt, pure water at 25° C. (Table 1); for Ksp In pure H2O at 25° C. / Ksp in pure H2O at 25° C.: CRC Handbook of Chemistry and Physics; for Ksp In pure H2O at 25° C.: 74th edition (Table 4); for Ksp in pure H2O at 25° C.: 74th edition (Table 8)
[2] = Solubility-product constant (Ksp) and molar solubility of metal salts in pure water at 25° C.; conditions: derived from Ksp (Table 1)

| Compound | Ksp [1] | Ksp In pure H2O at 25° C. [1] | Ksp in pure H2O at 25° C. [1] | other results |
| --- | --- | --- | --- | --- |
| [Cl][Ag] [AgCl, silver chloride] | 1.77 × 10^−10 | – | – | – |
| [Ag][I] [Agl, silver iodide] | 8.51 × 10^−17 | – | – | Molar solubility, silver [2]: 9.22 nM |
| [Br][Ag] [Silver bromide] | – | 5.35 × 10^−13 | – | – |
| O=S(=O)([O-])[O-].[Ag+].[Ag+] [Silver sulfate] | 1.20 × 10^−5 | 1.20 × 10^−5 | – | – |
| [O]=[Zn] [Zinc oxide] | – | – | 3.87 × 10^−10 | – |
| Copper sulfide | – | – | 6.00 × 10^−37 | – |
